The results in this text go back to paper PMC12865225 (Clinical and Translational Science, 2026).

The target in one data set is T1, OATP1B1 (Homo sapiens, UniProt Q9Y6L6).
T1 construct: expressed in transfected cells; host or cells: HEK293 (recombinant baculovirus-mediated transduction)
T1 sequence (Q9Y6L6 1-691): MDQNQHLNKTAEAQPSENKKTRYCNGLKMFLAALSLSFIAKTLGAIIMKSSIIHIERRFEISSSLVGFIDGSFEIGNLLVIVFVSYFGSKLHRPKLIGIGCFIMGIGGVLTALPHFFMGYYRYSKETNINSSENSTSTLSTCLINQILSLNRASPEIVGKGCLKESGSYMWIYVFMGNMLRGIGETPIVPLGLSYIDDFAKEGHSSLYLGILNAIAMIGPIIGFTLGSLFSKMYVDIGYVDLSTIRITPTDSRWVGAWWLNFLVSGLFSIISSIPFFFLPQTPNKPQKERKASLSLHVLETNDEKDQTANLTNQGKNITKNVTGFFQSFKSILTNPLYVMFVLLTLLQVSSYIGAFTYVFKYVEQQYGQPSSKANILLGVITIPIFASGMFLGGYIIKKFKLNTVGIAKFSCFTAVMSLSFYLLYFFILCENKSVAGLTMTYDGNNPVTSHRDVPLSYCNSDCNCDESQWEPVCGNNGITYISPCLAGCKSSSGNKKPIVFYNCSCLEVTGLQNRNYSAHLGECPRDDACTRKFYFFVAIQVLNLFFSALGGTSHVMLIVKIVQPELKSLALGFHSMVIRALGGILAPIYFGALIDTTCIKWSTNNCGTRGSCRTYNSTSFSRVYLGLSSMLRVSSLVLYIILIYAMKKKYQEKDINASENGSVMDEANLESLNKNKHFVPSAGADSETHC
As to the kind of experiment: Irreversible inhibition (reversibility) assay of OATP1B1. The following applies: for reversibility of OATP1B1 inhibition: wash-out after 15 min preincubation. The format is cell-based. As to the method:
were removed and 300 µl of warm TP-buffer was added to each well and incubated for 5 min.
The washing was repeated twice , after which the transport assays were conducted in the presence of 1 µM 2′,7′ -dichlorofluorescein for 5 min. The wells that were pre -incubated with […]
incubated with the vehicle contained three different inhibitor concentrations. After the transport

In the next data set the target is T2, OATP2B1 (Homo sapiens, UniProt O94956).
T2 construct: expressed in transfected cells; host or cells: HEK293 (recombinant baculovirus-mediated transduction)
T2 sequence (O94956 1-709): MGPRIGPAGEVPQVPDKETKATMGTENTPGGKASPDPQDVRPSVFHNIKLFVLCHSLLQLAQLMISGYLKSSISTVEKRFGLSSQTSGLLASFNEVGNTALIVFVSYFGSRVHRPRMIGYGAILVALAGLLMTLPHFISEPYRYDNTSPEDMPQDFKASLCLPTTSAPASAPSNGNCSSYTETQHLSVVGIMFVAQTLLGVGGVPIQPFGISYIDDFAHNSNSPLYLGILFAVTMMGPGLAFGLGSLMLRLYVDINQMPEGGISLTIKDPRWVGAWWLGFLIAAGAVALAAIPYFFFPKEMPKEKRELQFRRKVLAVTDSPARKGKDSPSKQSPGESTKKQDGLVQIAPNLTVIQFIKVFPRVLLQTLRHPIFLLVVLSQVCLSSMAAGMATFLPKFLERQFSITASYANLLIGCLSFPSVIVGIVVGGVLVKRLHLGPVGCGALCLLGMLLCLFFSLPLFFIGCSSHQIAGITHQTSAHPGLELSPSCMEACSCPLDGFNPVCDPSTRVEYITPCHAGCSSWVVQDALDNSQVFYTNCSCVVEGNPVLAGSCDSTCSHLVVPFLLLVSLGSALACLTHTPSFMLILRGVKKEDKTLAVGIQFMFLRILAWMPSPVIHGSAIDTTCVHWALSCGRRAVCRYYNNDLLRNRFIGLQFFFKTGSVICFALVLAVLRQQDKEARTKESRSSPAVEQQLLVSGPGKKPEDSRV
Put plainly: OATP2B1 inhibition with fluorescent substrate 4′,5′-dibromofluorescein in HEK293 cells. The data set is classed as cell-based. The note with it: 1 µM 4′,5′-dibromofluorescein, 5 min, 30 min preincubation. As to the method:
8- (2- [Fluoresceinyl]aminoethylthio)adenosine- 3', 5'- cyclic monophosphate (8-Fluo-cAMP) was acquired from Biolog Life Science Institute (Bremen, Germany), 4′,5′-dibromofluorescein was acquired from Sigma-Aldrich (St. Louis, MO, USA) and 2′,7′-dichlorofluorescein was acquired from Santa Cruz Biotechnology (Dallas, TX, USA).
Inhibition studies with fluorescent substrates in OATP transduced HEK293 cells The concentrations of fluorescent probe substrates were 1 µM 2′,7′-dichlorofluorescein for OATP1B1, 2.5 µM 8-Fluo-cAMP for OATP1B3 and 1 µM 4′,5′-dibromofluorescein for OATP2B1, and these concentrations were selected to be within or below of previously reported […]
reported linear ranges of transport for these substrate-transporter combinations.1,2,4 8-Fluo-cAMP was dissolved in ultrapure water, while dimethyl sulfoxide (DMSO) was used for all other compounds. […] For the quantification of fluorescent substrates, cells were lysed with 120 µl of lysis solution (1% Triton X-100, 5 mM EDTA, 150 mM sodium chloride and 150 mM TRIC-hydrochloride and adjusted to pH 8 with sodium hydroxide) for 30 min at 300 RPM shaking before transferring 80 µl of samples to a transparent 96-well plate containing 20 µl of 0.5 M sodium hydroxide. […] The plates were measured with a fluorescent plate reader (Varioskan LUX from ThermoFisher Scientific). […]

[1] abbreviates: 1 µM 2′,7′-dichlorofluorescein, 5 min, read-out: IC50 OATP1B1, inhibitor present only during the transport assay.
[2] abbreviates: cells washed three times before the transport assay, read-out: IC50 OATP1B1, inhibitor present only during the preincubation.

pIC50: −log10 of the molar value. Where two headings read alike, the source gives them in different places.

As to `Cc1onc(-c2c(Cl)cccc2Cl)c1C(=O)N[C@@H]1C(=O)N2[C@@H]1SC(C)(C)[C@@H]2C(=O)O` [Dicloxacillin], the pIC50 was 5.32 at OATP1B1 (setting [1]), 3.62 on OATP1B1 (setting [2]) and 4.42 at OATP2B1. The “reversibility of OATP1B1 inhibition” value at OATP1B1 is “reversible”.
As to `Cc1onc(-c2c(F)cccc2Cl)c1C(=O)N[C@@H]1C(=O)N2[C@@H]1SC(C)(C)[C@@H]2C(=O)O` [Flucloxacillin], the pIC50 at OATP1B1 (setting [1]) is 4.81; on OATP1B1 (setting [2]) it was 3.34; at OATP2B1 it was 4.12. In addition, the “reversibility of OATP1B1 inhibition” value at OATP1B1 is “reversible”.
